Article PMC9896599, “Biogenesis of flavor-related linalool is diverged and genetically conserved in tree peony (Paeonia × suffruticosa)” (Horticulture Research, 2022)

Tests used:
Type in all cases: biochemical
Conditions in all cases: 10 uM GPP, 30 mM KCl, 5 mM MgCl2, 1 mM MnCl2, 50 mM HEPES pH 7.5, 30 °C, 1 h
[1] = target: T1, PdTPS4 (Paeonia delavayi, UniProt A0A9E8GE34); experiment: GC-MS of headspace product (linalool)
T1 construct: full-length cDNA, C-terminal His6, E. coli Transetta (DE3), Ni-NTA purified; the five PdTPS are 553-600 residues, about 65 kDa; plastid-localized

[2] = target: T2, PdTPS3 (Paeonia delavayi, UniProt A0A9E8G7R5); experiment: GC-MS of headspace product (geraniol)
T2 construct: full-length cDNA, C-terminal His6, E. coli Transetta (DE3), Ni-NTA purified; the five PdTPS are 553-600 residues, about 65 kDa; plastid-localized

[3] = target: T3, PdTPS1 (Paeonia delavayi, UniProt A0A9E8GEC8); experiment: GC-MS of headspace product (linalool)
T3 construct: full-length cDNA, C-terminal His6, E. coli Transetta (DE3), Ni-NTA purified; the five PdTPS are 553-600 residues, about 65 kDa; plastid-localized
T3 sequence (A0A9E8GEC8 entry or part of it): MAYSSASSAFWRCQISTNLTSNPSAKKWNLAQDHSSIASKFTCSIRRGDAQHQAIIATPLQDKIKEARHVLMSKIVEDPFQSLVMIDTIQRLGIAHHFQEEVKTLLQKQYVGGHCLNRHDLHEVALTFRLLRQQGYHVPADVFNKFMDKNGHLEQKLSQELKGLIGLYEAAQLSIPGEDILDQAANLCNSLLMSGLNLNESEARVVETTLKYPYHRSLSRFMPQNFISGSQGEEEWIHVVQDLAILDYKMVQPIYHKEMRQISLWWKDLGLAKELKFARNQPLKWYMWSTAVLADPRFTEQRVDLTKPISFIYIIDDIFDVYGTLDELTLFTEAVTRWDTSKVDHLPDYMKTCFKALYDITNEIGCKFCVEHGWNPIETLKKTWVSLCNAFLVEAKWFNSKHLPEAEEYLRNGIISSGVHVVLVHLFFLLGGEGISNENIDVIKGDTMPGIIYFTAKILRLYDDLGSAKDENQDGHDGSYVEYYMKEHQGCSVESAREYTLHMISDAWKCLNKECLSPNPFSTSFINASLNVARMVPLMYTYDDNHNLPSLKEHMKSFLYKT

T1 sequence (A0A9E8GE34 entry or part of it): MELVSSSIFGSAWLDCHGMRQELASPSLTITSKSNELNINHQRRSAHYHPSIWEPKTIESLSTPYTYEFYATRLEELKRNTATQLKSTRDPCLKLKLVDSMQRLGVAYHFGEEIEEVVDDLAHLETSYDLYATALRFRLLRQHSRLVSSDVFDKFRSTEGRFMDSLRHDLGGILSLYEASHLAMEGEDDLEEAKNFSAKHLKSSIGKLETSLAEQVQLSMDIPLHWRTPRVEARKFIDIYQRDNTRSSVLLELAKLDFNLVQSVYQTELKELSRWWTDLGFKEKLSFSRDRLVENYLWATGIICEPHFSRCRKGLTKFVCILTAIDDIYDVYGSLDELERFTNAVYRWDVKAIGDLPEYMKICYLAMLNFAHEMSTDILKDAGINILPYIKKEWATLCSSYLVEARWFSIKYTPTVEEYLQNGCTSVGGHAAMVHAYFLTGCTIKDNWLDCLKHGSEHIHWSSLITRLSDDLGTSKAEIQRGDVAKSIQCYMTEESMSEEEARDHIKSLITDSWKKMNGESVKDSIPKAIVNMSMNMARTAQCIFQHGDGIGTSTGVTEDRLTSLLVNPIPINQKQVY
T2 sequence (A0A9E8G7R5 entry or part of it): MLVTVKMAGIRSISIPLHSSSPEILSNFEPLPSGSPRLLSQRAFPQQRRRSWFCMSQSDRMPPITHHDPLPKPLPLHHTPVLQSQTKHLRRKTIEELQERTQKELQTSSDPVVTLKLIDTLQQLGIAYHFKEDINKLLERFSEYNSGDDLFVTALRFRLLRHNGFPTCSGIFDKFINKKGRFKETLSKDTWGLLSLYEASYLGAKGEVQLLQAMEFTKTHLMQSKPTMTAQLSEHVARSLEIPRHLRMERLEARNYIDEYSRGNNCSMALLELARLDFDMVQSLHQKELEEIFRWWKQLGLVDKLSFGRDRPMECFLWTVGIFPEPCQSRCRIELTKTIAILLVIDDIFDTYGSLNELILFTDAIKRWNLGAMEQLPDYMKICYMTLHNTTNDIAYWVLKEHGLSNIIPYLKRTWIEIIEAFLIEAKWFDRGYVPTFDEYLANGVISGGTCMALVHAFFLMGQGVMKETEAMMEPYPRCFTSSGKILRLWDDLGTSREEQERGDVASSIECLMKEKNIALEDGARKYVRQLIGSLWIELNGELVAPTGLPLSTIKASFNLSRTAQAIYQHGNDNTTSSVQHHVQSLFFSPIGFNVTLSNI

## CC(C)=CCC/C(C)=C/COP(=O)(O)OP(=O)(O)O [GPP]
[1]
  GC-MS of headspace product (linalool): both PdTPS1 and PdTPS4 catalyzed the formation of acyclic terpene alcohols with linalool
[2]
  GC-MS of headspace product (geraniol): The reaction products catalyzed by PdTPS3 with GPP formed geraniol rather than linalool
[3]
  GC-MS of headspace product (linalool): both PdTPS1 and PdTPS4 catalyzed the formation of acyclic terpene alcohols with linalool
